Measured values taken from patent publication US20240408279A1, “SUPRAMOLECULAR-COVALENT COMPOSITE SLURRY FOR CARTILAGE REPAIR” (Northwestern University, priority 2021, published 2024).

How the values were obtained:
[1] = test system: osteochondral defect in the femoral trochlear groove; test: Osteochondral defect repair, femoral trochlear groove (ICRS macroscopic and modified O'Driscoll histology scoring); format: in vivo, sheep; details: Trochlea, TGFβ (+), control = TGFβ-1 in saline; for median Macroscopic Score: 12-point scale; for median Histology Score: 24-point scale
Procedure: (§1) Osteochondral defect filling and regeneration: Skeletally mature female sheep were anesthetized and arthrotomy was performed bilaterally. One 3-4 mm deep and 7 mm diameter osteochondral defect was made in the medial femoral condyle of each stifle and one defect of the same dimensions in the femoral trochlear groove of each stifle. In one stifle, both defects were immediately filled with the PA/HA hybrid with 1 μg/mL TGFβ-1 preloaded as indicated. In the contralateral stifle, saline was immediately added to both defects, which was supplemented with TGFβ-1 at the same concentration as used in the material treated stifle. A calcium chloride solution was then dripped on top of each defect. […] allowed the sheep to stand on the hindlimbs. Samples of each sheep's synovial fluid was antiseptically drawn immediately prior to surgery and one week following surgery. After euthanasia, gross appearance of the defect areas was assessed the ICRS macroscopic scoring system (Ref. 59; incorporated by reference in its entirety) (Table 4). The samples were then fixed in formalin, decalcified the samples and prepared sections which were stained with H&E, with safranin O, or immunohistochemically for collagen II. Sections were scored using a modified O'Driscoll scoring system (Ref. 60; incorporated by reference in its entirety) (Table 5).
(§2) Preparation of material for surgical implant: Heat treated PA solutions prepared at 19 mM were combined with a 10 μg/mL TGFβ-1 solution (R&D Systems) dissolved in a 0.1% BSA, 4 mM HCl buffer or with the buffer alone at a 9:1 ratio. The combination was mixed by pipetting and kept on ice for 1 h. 900 μL of the mixed solution was added to 36 mg of crosslinked HA particles prepared under sterile conditions and allowed to hydrate for 1 h. The hybrid material was packed into a 1 mL syringe with a 19-gauge needle attached and kept on ice until use during surgery.
Animal study design: Animal work was performed at the University of Wisconsin, School of Veterinary Medicine, and all procedures were approved by the Institutional Animal Use and Care Committee. Thirty-six mature female sheep ranging in age from 2-7 (mean=3.7±1.7) years weighing between 60 and 100 (mean=74±8.3) kg were used in this study. […]

[2] = test system: osteochondral defect in the medial femoral condyle; test: Osteochondral defect repair, medial femoral condyle (ICRS macroscopic and modified O'Driscoll histology scoring); format: in vivo, sheep; details: TGFβ (+); for median Macroscopic Score: 12-point scale; for median Histology Score: 24-point scale
Procedure: as §1, §2
Animal study design: Animal work was performed at the University of Wisconsin, School of Veterinary Medicine, and all procedures were approved by the Institutional Animal Use and Care Committee. Thirty-six mature female sheep ranging in age from 2-7 (mean=3.7±1.7) years weighing between 60 and 100 (mean=74±8.3) kg were used in this study. Animals were divided into 6 groups: (1) 1 pilot sheep sacrificed at 1 week to assess material retention, (2) 6 sheep sacrificed at 4 weeks treated with PA and TGFβ-1, with 1 sheep sacrificed prior to 4 weeks due to patellar luxation and excluded from the analysis, (3) 6 sheep sacrificed at 4 weeks with PA, but without TGFβ-1 treatment, (4) 14 sheep sacrificed at 12 weeks with PA and TGFβ-1 treatment, with 4 sheep sacrificed prior to 12 weeks due to patellar luxation and excluded from analysis, (5) 6 sheep sacrificed at 12 weeks with PA but without TGFβ-1 treatment, with 2 sacrificed prior to 12 weeks due to patellar luxation and excluded from analysis, and (6) two sheep sacrificed at 24 weeks with PA and TGFβ-1 treatment.
Surgical technique: Prior to surgery the sheep were fasted for 24 h, and withheld water for 12 h. Sheep were administered a dose of Xylazine (0.1-0.22 mg/kg IM) in their pen to sedate them for transport to the surgical suite as well as a pre-operative dose of buprenorphine (0.0006-0.01 mg/kg IM) for analgesia. Sheep were then induced with ketamine-midazolam (2-10 mg/kg-0.1-0.3 mg/kg IM) and immediately intubated. Once intubated the sheep were maintained on isoflurane (0-4%) in 100% O2. At this time, a dose of Procaine Penicillin-G (10,000-20,000 IU/kg) IM was administered. Using aseptic techniques, a medial stifle arthrotomy was performed on both limbs of each sheep. In each stifle, one osteochondral defect was made in the medial femoral condyle and a second was made in the femoral trochlear groove using a Stryker EHD variable speed surgical drill and a cannulated drill bit. For the 24-week group, defects were made in the condyle only and not the trochlear groove. […]

[3] = 4 weeks, control = TGFβ-1 in saline
[4] = 12 weeks, control = TGFβ-1 in saline

Control: in TGFβ (+) groups: contralateral control defects filled with 1 μg/mL TGFβ-1 in saline solution
median Macroscopic Score ([1]; 4 weeks): 5.7
median Histology Score ([1]; 4 weeks): 10.3
median Macroscopic Score ([1]; 12 weeks): 10.33
median Histology Score ([1]; 12 weeks): 11
median Macroscopic Score [2, 3]: 5
median Histology Score [2, 3]: 9.7
median Macroscopic Score [2, 4]: 7
median Histology Score [2, 4]: 10
median Macroscopic Score ([2]; 24 weeks): 9
median Histology Score ([2]; 24 weeks): 15.3
